Measurements as given in patent US8697705B2, “Isoindolinone derivatives” (Hoffmann-La Roche Inc., priority 2011, dated 2014).

Key:
[1] = target: T1, Recombinant human liver GK1 (GST-GK) (Homo sapiens, UniProt P35557); assay: Glucokinase in vitro assay (G6PDH-coupled, NADH generation, OD340); assay type: biochemical; conditions: 30° C., 5 mM D-glucose, 10% dimethylsulfoxide
T1 construct: made in house; host or cells: E. coli
T1 sequence (P35557 1-466 isoform P35557-2): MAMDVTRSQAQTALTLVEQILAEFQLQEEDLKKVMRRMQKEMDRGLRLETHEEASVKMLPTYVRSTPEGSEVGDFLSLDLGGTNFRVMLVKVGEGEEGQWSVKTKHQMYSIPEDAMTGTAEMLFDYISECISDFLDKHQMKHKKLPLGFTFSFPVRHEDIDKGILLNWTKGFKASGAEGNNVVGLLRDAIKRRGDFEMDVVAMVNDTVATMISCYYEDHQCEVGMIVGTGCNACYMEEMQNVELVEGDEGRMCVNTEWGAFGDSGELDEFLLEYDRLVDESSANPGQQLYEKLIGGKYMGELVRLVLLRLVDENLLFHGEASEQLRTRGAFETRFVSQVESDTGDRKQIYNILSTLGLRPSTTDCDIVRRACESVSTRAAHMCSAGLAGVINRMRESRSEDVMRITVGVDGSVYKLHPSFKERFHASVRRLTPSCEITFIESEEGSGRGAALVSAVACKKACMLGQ
Protocol: Glucokinase In Vitro Assay Protocol:
Glucokinase (GK) was assayed by coupling the production of glucose-6-phosphate to the generation of NADH with glucose-6-phosphate dehydrogenase (G6PDH, 0.75-1 kunits/mg; Boehringer Mannheim, Indianapolis, Ind.) from Leuconostoc mesenteroides as the coupling enzyme (Scheme 2).
Recombinant human liver GK1 was expressed in E. coli as a glutathione S-transferase fusion protein (GST-GK) and was purified by chromatography over a glutathione-Sepharose 4B affinity column using the procedure provided by the manufacturer (Amersham Pharmacia Biotech, Piscataway, N.J.).
The assay was conducted at 30° C. in a flat bottom 96-well tissue culture plate from Costar (Cambridge, Mass.) with a final incubation volume of 120 μL. The incubation reaction contained the following: 25 mM Hepes buffer (pH 7.1), 25 mM KCl, 5 mM D-glucose, 1 mM ATP, 1.8 mM NAD, 2 mM MgCl2, 1 μM sorbitol-6-phosphate, 1 mM dithiothreitol, test drug or 10% dimethylsulfoxide, ˜7 units/ml G6PDH, and GK (see below). All organic reagents were >98% pure and were from Boehringer Mannheim with the exceptions of D-glucose and Hepes which were from Sigma Chemical Co, St Louis, Mo. Test compounds were dissolved in dimethylsulfoxide and were added to the incubation reaction minus GST-GK in a volume of 12 μL to yield a final dimethylsulfoxide concentration of 10%. This mix was pre-incubated in the temperature controlled chamber of a SPECTRAmax 250 microplate spectrophotometer (Molecular Devices Corporation, Sunnyvale, Calif.) for 10 minutes to allow temperature equilibrium and then the reaction was started by the addition of 20 μL GST-GK.
After addition of enzyme, the increase in optical density (OD) at 340 nm was monitored spectrophotometrically to determine the rate of change (OD340 per min). The GK activity (OD340/min) in control wells (10% dimethylsulfoxide minus GK activators) was compared with the activity in wells containing test GK activators, and the concentration of activator that produced a 50% increase in the activity of GK, i.e., the SC1.5, was calculated.

C57BL/6J mice = assay: Glucokinase activator in vivo screen: blood glucose lowering after oral gavage in mice; conditions: Mus musculus; vs. control at 2 hours post 25 mg/kg oral dose, C57B6 mice; read-out: % gluc lowering @ 2 H
Protocol: Glucokinase Activator In Vivo Screen Protocol in Lean Mice:
Lean C57BL/6J mice were orally dosed via gavage with Glucokinase (GK) activator following a two hour fasting period. Blood glucose determinations were made at various (e.g. 0, 1, 2, 4 and 8 hours post-oral gavage) times during the study.
C57Bl/6J mice were obtained from Jackson Laboratory (Bar Harbor, Me.) and were maintained in a light-dark cycle with lights on from 0600-1800 hr. For studies in lean mice, the mice were received at age ten weeks and given ad libitum access to control diet (LabDiet 5001 chow, PMI Nutrition, Brentwood, Mo.), and were at least age 11 weeks at the time of study. For studies in the DIO model, the mice were received at age five weeks and given ad libitum access to Bio-Sery F3282 High Fat Diet (Frenchtown, N.J.), and were at least age 16 weeks at the time of study. The experiments were conducted during the light phase of the light-dark cycle. Mice (n=6) are weighed and fasted for a two hour period prior to oral treatment. GK activators are formulated in Gelucire vehicle (Ethanol:Gelucire44/14:PEG400q.s. 4:66:30 v/w/v). For studies in lean mice, the mice were dosed orally with 5.0 μL per gram of body weight (i.e. 5 ml/kg×10.0 mg/ml formulation to equal a 50 mg/kg dose). For studies in DIO mice, the mice were dosed orally with 5.0 μL per gram of body weight (i.e. 5.0 ml/kg×5 mg/ml formulation to equal a 25 mg/kg dose). Immediately prior to dosing, a pre-dose (time zero) blood glucose reading was acquired by snipping off a small portion of the animal's tail and collecting 15 μL blood into a heparinized capillary tube for analysis. Following GK activator administration, additional blood glucose readings were taken at various time points post dose from the same tail wound. Results were interpreted by comparing the mean blood glucose values of vehicle treated mice with GK activator treated mice over the study period.
Table 2 below provides data for % glucose lowering of a representative number of compounds of the present invention vs. control at 2 hours post 25 or 50 mg/kg dose in C57B6 mice: […]

SC1.5 (concentration of activator that produced a 50% increase in the activity of GK) [1] [µM] | SMILES | change in vivo at 25 mg/kg (C57BL/6J mice) [%]
0.186 | O=C(Nc1ccn(CCO)n1)[C@H](CC1CCCC1)N1Cc2c(cccc2C(F)(F)F)C1=O [Example 2, (S)-3-Cyclopentyl-N-[1-(2-hydroxy-ethyl)-1H-pyrazol-3-yl]-2-(1-oxo-4-trifluoromethyl-1,3-dihydro-isoindol-2-yl)-propionamide] | -38.8
3.526 | COCCn1ccc(NC(=O)[C@H](CC2CCCCC2)N2Cc3ccccc3C2=O)n1 [Example 8, (S)-3-Cyclohexyl-N-[1-(2-methoxy-ethyl)-1H-pyrazol-3-yl]-2-(1-oxo-1,3-dihydro-isoindol-2-yl)-propionamide] | 
1.242 | COC(C)(C)Cn1ccc(NC(=O)[C@H](CC2CCCC2)N2Cc3ccccc3C2=O)n1 [Example 14, (S)-3-Cyclopentyl-N-[1-(2-methoxy-2-methyl-propyl)-1H-pyrazol-3-yl]-2-(1-oxo-1,3-dihydro-isoindol-2-yl)-propionamide] | 
0.179 | CC(C)OCCn1ccc(NC(=O)[C@H](CC2CCCC2)N2Cc3c(cccc3C(F)(F)F)C2=O)n1 [Example 17, (S)-3-Cyclopentyl-N-[1-(2-isopropoy-ethyl)-1H-pyrazol-3-yl]-2-(1-oxo-4-trifluoromethyl-1,3-dihydro-isoindol-2-yl)-propionamide] | -40.2
1.857 | O=C(Nc1ccn(CCCO)n1)[C@H](CC1CCCC1)N1Cc2ccccc2C1=O [Example 12, (S)-3-Cyclopentyl-N-[1-(3-hydroxy-propyl)-1H-pyrazol-3-yl]-2-(1-oxo-1,3-dihydro-isoindol-2-yl)-propionamide] | 
1.6 | COCCn1ccc(NC(=O)[C@H](CC2CCCC2)N2Cc3ccccc3C2=O)n1 [Example 9, (S)-3-Cyclopentyl-N-[1-(2-methoxy-ethyl)-1H-pyrazol-3-yl]-2-(1-oxo-1,3-dihydro-isoindol-2-yl)-propionamide] | 
0.334 | CC(C)(C)OC(=O)CCn1ccc(NC(=O)[C@H](CC2CCCC2)N2Cc3c(cccc3C(F)(F)F)C2=O)n1 [Example 19, 3-{3-[(S)-3-Cyclopentyl-2-(1-oxo-4-trifluoromethyl-1,3-dihydro-isoindol-2-yl)-propionylamino]-pyrazol-1-yl}-propionic acid tert-butyl ester] | 
2.091 | CC(C)OCCn1ccc(NC(=O)[C@H](CC2CCCC2)N2Cc3ccccc3C2=O)n1 [Example 11, (S)-3-Cyclopentyl-N-[1-(2-isopropoxy-ethyl)-1H-pyrazol-3-yl]-2-(1-oxo-1,3-dihydro-isoindol-2-yl)-propionamide] | 
20.625 | COC(C)(C)Cn1ccc(NC(=O)[C@H](CC2CC2)N2Cc3ccccc3C2=O)n1 [Example 10, (S)-3-Cyclopropyl-N-[1-(2-methoxy-2-methyl-propyl)-1H-pyrazol-3-yl]-2-(1-oxo-1,3-dihydro-isoindol-2-yl)-propionamide] | 
0.457 | O=C(O)CCn1ccc(NC(=O)[C@H](CC2CCCC2)N2Cc3c(cccc3C(F)(F)F)C2=O)n1 [Example 20, 3-[3-[(S)-3-Cyclopentyl-2-(1-oxo-4-trifluoromethyl-1,3-dihydro-isoindol-2-yl)-propionylamino]-pyrazol-1-yl]-propionic acid] | 

Further lines, the molecule ahead of its results:

SMILES | SC1.5 (concentration of activator that produced a 50% increase in the activity of GK) [1] [µM] | change in vivo at 25 mg/kg (C57BL/6J mice) [%]
CC(C)C[C@@H](C(=O)Nc1cnccn1)N1Cc2c(cccc2C(F)(F)F)C1=O [Example 23, (S)-4-Methyl-2-(1-oxo-4-trifluoromethyl-1,3-dihydro-isoindol-2-yl)-pentanoic acid pyrazin-2-ylamide] | 1.422 | 
CSCC[C@@H](C(=O)Nc1cnc([C@H](O)CO)cn1)N1Cc2c(cccc2C(F)(F)F)C1=O [Example 22, (S)—N-[5-((S)-1,2-Dihydroxy-ethyl)-pyrazin-2-yl]-4-methylsulfanyl-2-(1-oxo-4-trifluoromethyl-1,3-dihydro-isoindol-2-yl)-butyramide] | 14.914 | 
CC(C)C[C@@H](C(=O)Nc1cnc([C@H](O)CO)cn1)N1Cc2c(cccc2C(F)(F)F)C1=O [Example 24, (S)-4-Methyl-2-(1-oxo-4-trifluoromethyl-1,3-dihydro-isoindol-2-yl)-pentanoic acid [5-((S)-1,2-dihydroxy-ethyl)-pyrazin-2-yl]-amide] | 2.966 | 
O=C(Nc1ccn(C[C@@H](O)CO)n1)[C@H](CC1CCCC1)N1Cc2c(cccc2C(F)(F)F)C1=O [Example 5, (S)-3-Cyclopentyl-N-[1-((R)-2,3-dihydroxy-propyl)-1H-pyrazol-3-yl]-2-(1-oxo-4-trifluoromethyl-1,3-dihydro-isoindol-2-yl)-propionamide] | 0.074 | -50.1
COC(C)(C)Cn1ccc(NC(=O)[C@H](CC2CCCC2)N2Cc3c(cccc3C(F)(F)F)C2=O)n1 [Example 7, (S)-3-Cyclopentyl-N-[1-(2-methoxy-2-methyl-propyl)-1H-pyrazol-3-yl]-2-(1-oxo-4-trifluoromethyl-1,3-dihydro-isoindol-2-yl)-propionamide] | 0.032 | -48.2
O=C(Nc1cnc(Br)cn1)[C@H](CC1CCCC1)N1Cc2c(cccc2C(F)(F)F)C1=O [Example 16, (S)—N-(5-Bromo-pyrazin-2-yl)-3-cyclopentyl-2-(1-oxo-4-trifluoromethyl-1,3-dihydro-isoindol-2-yl)-propionamide] | 0.062 | 
CC(C)(C)OC(=O)Cn1ccc(NC(=O)[C@H](CC2CCCC2)N2Cc3c(cccc3C(F)(F)F)C2=O)n1 [Example 3, {3-[(S)-3-Cyclopentyl-2-(1-oxo-4-trifluoromethyl-1,3-dihydro-isoindol-2-yl)-propionylamino]-pyrazol-1-yl}-acetic acid tert-butyl ester] | 0.244 | 
O=C(O)Cn1ccc(NC(=O)[C@H](CC2CCCC2)N2Cc3c(cccc3C(F)(F)F)C2=O)n1 [Example 4, {3-[(S)-3-Cyclopentyl-2-(1-oxo-4-trifluoromethyl-1,3-dihydro-isoindol-2-yl)-propionylamino]-pyrazol-1-yl}-acetic acid] | 0.439 | 
